Results as given in patent US20170144987A1, “NOVEL CRYSTALLINE POLYMORPHS OF PYRIDINE DERIVATIVE AND METHOD FOR PRODUCING THE SAME” (TEIJIN PHARMA LIMITED, priority 2014, published 2017).

Columns and labels:
[1] = system: Cebus apella; assay: Drug efficacy evaluation test for Cebus apella (uric acid excretion rate); assay type: in vivo; conditions: 3 mg/kg to 30 mg/kg in 0.5% methylcellulose, administered from the nasal cavity to the stomach, samples up to 24 hours
Experimental: Drug Efficacy Evaluation Test for Cebus Apella 2-(5-chloropyridin-3-yl)-1-(2,5-dichlorobenzyl)-4-methyl-1H-imidazole-5-carboxylic acid (3 mg/kg to 30 mg/kg) dispersed in a 0.5% methylcellulose solution was administered to Cebus apella from the nasal cavity to the stomach using a disposable catheter and a syringe barrel. Blood samples were taken before administration and 30 minutes, 1 hour, 2 hours, 4 hours, 8 hours, 12 hours, and 24 hours after administration; and urine samples were collected for the time intervals of immediately after to 4 hours after administration, from 4 hours to 8 hours after administration, from 8 hours to 16 hours after administration, and from 16 hours to 24 hours after administration. Concentrations of uric acid and creatinine in the blood and urine samples collected were measured by an automatic analyzer (JEOL Ltd.). Uric acid and […] were measured using L-type Wako UA•F (Wako Pure Chemicals Industries, Ltd.) and L-type Creatine F (Wako Pure Chemicals Industries, Ltd.), respectively. Uric acid clearance was calculated from the uric acid concentrations in blood and urine and, similarly, creatinine clearance was calculated from the creatinine concentrations.

[2] = target: T1, human URAT1 (Homo sapiens, UniProt Q96S37); assay: Test for inhibition of uric acid transport using human URAT1-expressing cells; assay type: cell-based; conditions: HEK 293 cells expressing human URAT1; 14C-labeled uric acid 25 μM; uptake 37° C. for 5 min; read-out: IC50 (concentration of the compound at which the uric acid transport rate is inhibited by 50%)
T1 construct: Full-length cDNA of human URAT1 (hURAT1)
T1 sequence (Q96S37 1-553): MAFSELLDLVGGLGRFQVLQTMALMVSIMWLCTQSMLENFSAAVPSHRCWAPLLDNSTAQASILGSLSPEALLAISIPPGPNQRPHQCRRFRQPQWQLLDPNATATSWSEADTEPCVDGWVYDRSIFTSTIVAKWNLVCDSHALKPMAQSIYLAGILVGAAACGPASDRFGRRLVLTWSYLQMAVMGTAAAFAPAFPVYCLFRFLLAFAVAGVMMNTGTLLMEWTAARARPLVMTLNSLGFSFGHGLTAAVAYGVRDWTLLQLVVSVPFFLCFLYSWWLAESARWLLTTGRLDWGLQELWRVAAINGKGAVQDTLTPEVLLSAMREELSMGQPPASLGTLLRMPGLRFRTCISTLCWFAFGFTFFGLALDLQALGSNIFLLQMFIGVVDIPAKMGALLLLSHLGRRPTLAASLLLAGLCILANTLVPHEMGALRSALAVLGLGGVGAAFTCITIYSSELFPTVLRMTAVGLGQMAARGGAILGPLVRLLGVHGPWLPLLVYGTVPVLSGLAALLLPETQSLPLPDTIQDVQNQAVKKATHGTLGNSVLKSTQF
Experimental: Test for Inhibition of Uric Acid Transport Using Human URAT1-Expressing Cells
2-(5-chloropyridin-3-yl)-1-(2,5-dichlorobenzyl)-4-methyl-1H-imidazole-5-carboxylic acid was dissolved in DMSO (produced by Sigma) to a concentration of 20 mM and the concentration was subsequently adjusted to a value desired for use. Full-length cDNA of human URAT1 (hURAT1) (produced by OriGene Technologies, Inc., NCBI Reference Sequence: NM 144585) was subcloned into an expression vector, pCMV6-Kan/Neo (produced by OriGene Technologies, Inc.), and hURAT1 gene was transfected into human embryonic kidney-derived cells (HEK 293 cells) by liposome method using Lipofectamine 2000 (produced by Invitrogen Corporation), whereupon HEK 293 cells expressing human URAT1 gene were selected on the basis of Geneticin resistance. […]
After the medium was removed by aspiration from each well, the medium was replaced with a solution obtained by substituting NaCl in Hank's Balanced Salt Solution (HBSS) with Na gluconate (hereinafter, HBSS/Na-gluconate) and the cells were preincubated at 37° C. for about 10 minutes. […] The cell sample and a liquid scintillation liquid, ULTIMA GOLD (produced by PerkinElmer, Inc.) were mixed and the radioactivity was measured by a liquid scintillation counter (Beckman Coulter, Inc.). […]

- IC50 [2]: ≤ 200 nM
SMILES: Cc1nc(-c2cncc(Cl)c2)n(Cc2cc(Cl)ccc2Cl)c1C(=O)O [2-(5-chloropyridin-3-yl)-1-(2,5-dichlorobenzyl)-4-methyl-1H-imidazole-5-carboxylic acid]
- activity to promote uric acid excretion (uric acid excretion rate) [1]: excellent activity to promote uric acid excretion
